The source of these data is patent US8202904B2, “α-cyano-4-fluoro-3-phenoxybenzyl meta-halo pyrethrate, a process for preparing the same and the uses thereof” (East China Normal University, priority 2007, dated 2012).

The test system of series [1] is Culex pipiens pallens fourth instar wiggler. The series can be described thus: Killing effect on wiggler, WHO immersing method, LC50. Format: in vivo. The following applies: for Relative toxicity: from wiggler LC50, Cypermethrin = 100. As for the experimental part:
The following pyrethrates were tested as representatives according to the method recommended by the World Health Organization (WHO) (Zongbing ZHANG, the assay of toxicity of insecticides, the Science Press, 1988), the commonly used testing breed, Culex pipiens pallens fourth instar wiggler is used as a subject for biological assay, test temperature: 26±1° C., humidity: 70±10%; immersing method: a solution of a certain amount the compound to be tested in acetone was mixed evenly with pure water in the gradually decreasing concentration of 500, 250, 100, 50, 25, 12.5, 6.25, 3.125, 1, 0.5, 0.25, 0.1, 0.05, 0.025, 0.01, 0.005, 0.0025, 0.0001 mg/L, and the mortality of wiggler after 24 hours was calculated and LC50 was calculated to preliminarily evaluate the insecticidal activity. The results were shown in Table I. Compound 1-5 are representative examples of the compound of formula (I) of the present invention: the compounds involved in preparation Example 1-5 were prepared;
At the same time, their relative toxicities were compared with those of Cypermethrin, and Deltamethrin.

In a further series the test system is Blattela germanica. The series can be described thus: Striking down effect on cockroaches, liquid film contact method. It is filed as in vivo. Also noted: unit not given here. The following applies: Blattela germanica male adults, film at 54 mg/m^2, 22±1° C. As for the experimental part:
The striking down effect on Blattela germanica was tested using Compound 2 and 3, which are representative examples of the compound of formula (I) of the present invention, Compound 9 as a control example. Blattela germanica, an in-house cultured sensitive strain, male adult insects were used. Test temperature: 22±1° C., test method: liquid film contact method. A liquor in acetone was evenly coated at the amount of 54 mg/m^2 on the inner wall of a wild mouth bottle to form a film. After the film was dry, 10 adult insects were put into each bottle, and the striking down time and striking down number were observed, and each treatment was done in triplicate.

A further series has as its system Aphis medicaginis kock. The series can be described thus: Killing effect on aphids, immersion. It is filed as in vivo. To be noted: for The average mortality: aphids, after 24 hours. How it is done:
The killing effect on aphids was tested using Compound 2 and 3, which are representative examples of the compound of formula (I) of the present invention, Compound 9 as a control example. Aphis medicaginis kock; test temperature: 26±1° C., humidity: 70±10%; test method: immersion; adult insects together with bean sprouts were immersed in a liquor in dimethyl sulfoxide for 5 seconds, after which the bean sprouts were heeled in a solid support. Each treatment was done in triplicate. The number of the killed insects was checked after 24 hours to calculate the mortality.

The subject of another series is Mythimna separata. Nature of the series: Killing effect on Mythimna separata, dipped corn leaves fed to larvae. It is filed as in vivo. To be noted: for The average mortality: after 48 hours. As for the experimental part:
The killing effect on Mythimna separata was tested using Compounds 2 and 3, which are representative examples of the compound of formula (I) of the present invention, Compound 9, polyfluorobenzyl meta-halo pyrethrate, which has the highest insecticidal activity to Mythimna separata as a control example.
Mythimna separata: test temperature: 26±1° C., humidity: 70±10%; the corn leaves was immersed, and then were taken out after they were dipped in a liquor in dimethyl sulfoxide for 5 seconds. The liquor was dried in the shade and the corn leaves were cut away to feed larvae at the beginning of the third instar. Each treatment was done in triplicate. The number of killed insects was counted after 48 hours to calculate the mortality.

Series [2] can be described thus: Acute toxicity on rats by oral administration. The following applies: rat, in vivo.
Series [3] is described as follows: Stability test, ultraviolet lamp irradiation, gas chromatography analysis. To be noted: 30 min, 3 mM. Format: physicochemical. How it is done: 0.15 mmol of the compound of Preparation Example 2 (cis-α-cyano-3-phenoxy-4-fluoro-benzyl-2,2-dimethyl-3-(2-chlorovinyl)cyclopropane carboxylate) and 0.15 mmol of the corresponding dichloride compound (cis-α-cyano-3-phenoxy-4-fluoro-benzyl-2,2-dimethyl-3-(2,2-dichlorovinyl)cyclopropane carboxylate) were added to two vessels separately, to which 50 ml of cyclohexane were added separately. They were irradiated by a 500 W ultraviolet lamp for 30 min respectively. Then to each of the vessels were added 0.15 mmol of n-hexane as an internal standard for gas chromatography analysis. […] The photodegradation rate of the former is 1.9 times of that of the latter. That is to say, if the same amounts were used, the residue of the former in the environment is lower than that of the latter.

For series [4], the system named is Tetrangychus cinnabarinus. Nature of the series: Killing effect on Tetrangychus cinnabarinus, immersion. Format: in vivo. The following applies: after 24 hours. How it is done:
The killing effect on acarids was tested using Compound 2 and 3, which are representative examples of the compound of formula (I) of the present invention, Compound 9 as a control example. Tetrangychus cinnabarinus, test temperature: 26±1° C. humidity: 70±10%; test method: immersion; adult insects together with horsebean leaves were immersed in a liquor in dimethyl sulfoxide for 5 seconds, after which the leaves were inserted into a small bottle. Each treatment was done in triplicate. The number of the killed insects was checked after 24 hours to calculate the mortality.

The next series has as its system Musca domestica. The series can be described thus: Striking down effect on Musca domestica, liquid film contact method. To be noted: Musca domestica adults, film from 1 ml of 0.1% liquor in acetone in 500 ml conical flask. It is filed as in vivo. More on the design: unit not given here. As for the experimental part: The striking down effect on Musca domestica was tested using Compounds 2 and 3, which are representative examples of the compound of formula (I) of the present invention, Compound 9 as a control example. Musca domestica, an in-house cultured sensitive strain, the adult insects in eclosion for 3-5 days were used, and the male and female insects are half and half. Test temperature: 26±1° C., humidity: 70±10%, test method: liquid film contact method. 1 ml of 0.1% liquor in acetone was evenly coated on a 500 ml conical flask to form a film. After the film was dry, 20˜25 adult insects were put into the flask, and the striking down time and striking down number were observed, and each treatment was done in triplicate.

The mark [5] stands for this setting: Aphis medicaginis, 24 h, read-out: The average mortality.
[6] abbreviates: 48 h, read-out: The average mortality.

In brackets after ≈: the same amount, converted by molar mass.

Consider `CC1(C)[C@H](C=CCl)[C@@H]1C(=O)OC(C#N)c1ccc(F)c(Oc2ccccc2)c1` (relative stereo) [Compound 2, cis-α-cyano-3-phenoxy-4-fluoro-benzyl-2,2-dimethyl-3-(2-chlorovinyl)cyclopropane carboxylate], for which, in series [1] (Culex pipiens pallen larvae), the “relative toxicity versus cypermethrin” value was found to be 22.55 times, the “relative toxicity versus deltamethrin” value is 2.55 times and the “relative toxicity versus the compounds in comparative examples 1-6” value was 125-1128 times. For the same compound, in series [1] (Culex pipiens, 24 h), the LC50 (commonly the concentration that kills 50% of the test population) was 0.47 ng/mL (≈ 1.18 nM). Moreover, in series [1] (extrapolated 4*2.55 from the racemate of four chiral isomers), the “relative toxicity versus deltamethrin, estimated for the single chiral isomer” value is 10 times. This compound yielded a Relative toxicity in series [1] of 2255. Besides, the KT50 in the series on Blattela germanica came to 5.12. For the same compound, in the series on Aphis medicaginis kock (setting [5]), the mortality (as a rule, the percentage killed) at 0.25 ppm turned out to be 0%; the mortality at 0.5 ppm turned out to be 28.8%; the mortality at 1 ppm came out at 84.3%; the mortality at 5 ppm amounted to 89.5%. Besides, in the series on Aphis medicaginis kock (setting [5]), the mortality at 50 ppm amounted to 100% and the mortality at 500 ppm came out at 100%. Further, in the series on Mythimna separata (setting [6]), the mortality at 0.25 ppm came to 0%, the mortality at 0.5 ppm worked out at 33.3%, the mortality at 1 ppm is 66.7% and the mortality at 5 ppm is 100%. Besides, in the series on Mythimna separata (setting [6]), the mortality at 50 ppm amounted to 100% and the mortality at 500 ppm is 100%. Further, the LD50 (commonly the dose at which mortality reaches 50%) in series [2] (female) came out at 158 mg/kg. For the same compound, in series [2] (male), the LD50 is 116 mg/kg. In series [3], the degraded by light is 30% and the “photodegradation rate relative to the corresponding dichloride compound” value came out at 1.9 times. For the same compound, the The average mortality in series [4] (1 mg/L) was 0%. Moreover, in series [4] (5 mg/L), the The average mortality amounted to 11.9%. The The average mortality in series [4] (50 mg/L) is 91.1%. Further, in series [4] (500 mg/L), the The average mortality is given as 100%. In the series on Musca domestica, the KT50 turned out to be 3.49.
In the case of `CC1(C)[C@@H](C=CCl)[C@@H]1C(=O)OCc1c(F)c(F)cc(F)c1F` (relative stereo) [Compound 9, trans-2,3,5,6-tetrafluoro-4-benzyl-3-(2-chlorovinyl)-2,2-dimethylcyclopropane carboxylat, reference compound], in series [1] (Culex pipiens pallens fourth instar wiggler, immersing method, mortality after 24 hours, 26±1° C.), the median lethal concentration (LC50) turned out to be 249.2 ng/mL (≈ 740 nM). The same compound returned a Relative toxicity in series [1] of 4. Moreover, the KT50 turned out to be 12.0 with Blattela germanica and 9.51 in the series on Musca domestica. Moreover, the The average mortality came to 0% in the series on Aphis medicaginis kock (0.5 ppm); 0% in the series with Aphis medicaginis kock (1 ppm); 0% with Aphis medicaginis kock (5 ppm); 18.8% with Aphis medicaginis kock (50 ppm); 100% in the series with Aphis medicaginis kock (500 ppm); 0% in the series on Mythimna separata (0.5 ppm). Also, the The average mortality was determined as 0% in the series with Mythimna separata (1 ppm); 0% in the series on Mythimna separata (5 ppm); 100% with Mythimna separata (50 ppm); 100% with Mythimna separata (500 ppm); 0% in series [4] (1 mg/L); 0% in series [4] (5 mg/L). In addition, the The average mortality in series [4] (50 mg/L) and in series [4] (500 mg/L) was 0% each time.
